These molecules were tested against T1, hMC2 receptor (crude hMC2R membranes from CRE-bla-CHO-K1 cells stably expressing hMC2 receptor and hMRAP accessory protein) (Homo sapiens, UniProt Q01718) (assay: hMC2 membrane binding assay ([125I]ACTH (1-39) Tyr23, SPA)). Conditions: displacement of 0.2 nM [125I]ACTH (1-39) Tyr23 from hMC2R membranes, 1.5 hours at room temperature; read-out: MC2R binding potency.
T1 construct: crude membrane fractions
How it was run: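 Crude membranes from CRE-bla-CHO-K1 cells stably co-expressing hMC2R and hMRAP, premixed with WGA PVT SPA beads in pH 7.4 HEPES buffer (5 mM MgCl2, 1 mM CaCl2, 0.20% BSA, protease inhibitors). Compounds compete with [125I]ACTH(1-39) Tyr23, read by scintillation. Ki from non-linear regression.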

T1 sequence (Q01718 whole entry): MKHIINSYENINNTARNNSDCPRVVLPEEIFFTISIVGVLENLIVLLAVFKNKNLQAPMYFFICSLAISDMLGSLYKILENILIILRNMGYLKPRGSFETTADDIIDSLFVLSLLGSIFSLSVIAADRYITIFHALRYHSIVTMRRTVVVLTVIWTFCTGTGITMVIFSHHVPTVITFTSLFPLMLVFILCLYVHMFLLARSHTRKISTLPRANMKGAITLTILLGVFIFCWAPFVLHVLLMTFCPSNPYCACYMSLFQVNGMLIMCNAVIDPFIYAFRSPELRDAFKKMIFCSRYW
T1 sequence (Q8TCY5 whole entry partner): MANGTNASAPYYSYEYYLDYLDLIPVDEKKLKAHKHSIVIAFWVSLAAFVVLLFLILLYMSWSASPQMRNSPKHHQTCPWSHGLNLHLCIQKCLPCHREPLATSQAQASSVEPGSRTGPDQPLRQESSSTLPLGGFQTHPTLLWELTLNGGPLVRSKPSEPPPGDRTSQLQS

Row | Structure (SMILES) | Ki
1 | COc1ccc(F)cc1-c1ncc(C2(C(=O)N[C@H]3CCN(C)C3)CCN(c3ccc(C(F)(F)F)cc3F)CC2)cc1F [Compound 1-204, 1-[2-fluoro-4-(trifluoromethyl)phenyl]-4-[5-fluoro-6-(5-fluoro-2-methoxyphenyl)pyridin-3-yl]-N-[(3S)-1-methylpyrrolidin-3-yl]piperidine-4-carboxamide] | < 10 nM
2 | COc1sccc1-c1ccc(C2(C(=O)N[C@H]3CCN(C)C3)CCN(c3ccc(C(F)(F)F)cc3Cl)CC2)cn1 [Compound 1-167, 1-[2-chloro-4-(trifluoromethyl)phenyl]-4-[6-(2-methoxythiophen-3-yl)pyridin-3-yl]-N-[(3S)-1-methylpyrrolidin-3-yl]piperidine-4-carboxamide] | < 10 nM
3 | COc1c(F)cc(F)cc1-c1ccc(C2(C(=O)N[C@@H]3CCN(C)C3)CCN(c3ccc(C(F)(F)F)cc3C#N)CC2)cn1 [Compound 1-87, 1-[2-cyano-4-(trifluoromethyl)phenyl]-4-[6-(3,5-difluoro-2-methoxyphenyl)pyridin-3-yl]-N-[(3R)-1-methylpyrrolidin-3-yl]piperidine-4-carboxamide] | < 10 nM
4 | COc1ncccc1-c1ncc(C2(C(=O)N[C@@H]3CCN(C)C3)CCN(c3ccc(C(F)(F)F)cc3C#N)CC2)cc1F [Compound 1-131, 1-[2-cyano-4-(trifluoromethyl)phenyl]-4-{3-fluoro-2′-methoxy-[2,3′-bipyridin]-5-yl}-N-[(3R)-1-methylpyrrolidin-3-yl]piperidine-4-carboxamide] | < 10 nM
5 | COc1ncccc1-c1ncc(C2(C(=O)NCCN(C)C)CCN(c3ccc(C(F)(F)F)cc3F)CC2)cc1F [Compound 1-300, N-[2-(dimethylamino)ethyl]-4-{3-fluoro-2′-methoxy-[2,3′-bipyridin]-5-yl}-1-[2-fluoro-4-(trifluoromethyl)phenyl]piperidine-4-carboxamide] | < 10 nM
6 | COc1ccccc1-c1ccc(C2(C(=O)NC[C@@H]3C[C@@H](F)CN3)CCN(c3ccc(C(F)(F)F)cc3C#N)CC2)cn1 [Compound 1-247, 1-[2-cyano-4-(trifluoromethyl)phenyl]-N-{[(2S,4R)-4-fluoropyrrolidin-2-yl]methyl}-4-[6-(2-methoxyphenyl)pyridin-3-yl]piperidine-4-carboxamide] | < 10 nM
7 | CN1CC[C@@H](NC(=O)C2(c3ccc(-c4ccccc4OC(F)F)nc3)CCN(c3ccc(C(F)(F)F)cc3C#N)CC2)C1 [Compound 1-114, 1-[2-cyano-4-(trifluoromethyl)phenyl]-4-{6-[2-(difluoromethoxy)phenyl]pyridin-3-yl}-N-[(3R)-1-methylpyrrolidin-3-yl]piperidine-4-carboxamide] | < 10 nM
8 | COc1ncccc1-c1ncc(C2(C(=O)N[C@H]3CCN(C)C3)CCN(c3ccc(C(F)(F)F)cc3C#N)CC2)cc1F [Compound 1-132, 1-[2-cyano-4-(trifluoromethyl)phenyl]-4-{3-fluoro-2′-methoxy-[2,3′-bipyridin]-5-yl}-N-[(3S)-1-methylpyrrolidin-3-yl]piperidine-4-carboxamide] | < 10 nM
9 | COc1ccccc1-c1ccc(C2(C(=O)NC[C@H]3CN(C)CCO3)CCN(c3ccc(C(F)(F)F)cc3C#N)CC2)cn1 [Compound 1-327, 1-[2-cyano-4-(trifluoromethyl)phenyl]-4-[6-(2-methoxyphenyl)pyridin-3-yl]-N-{[(2S)-4-methylmorpholin-2-yl]methyl}piperidine-4-carboxamide] | 10 to 100 nM
10 | CCOc1ncccc1-c1ccc(C2(C(=O)N[C@H]3CCN(C)C3)CCN(c3ccc(C(F)(F)F)nc3C(N)=O)CC2)cn1 [Compound 1-27, 3-(4-{2′-ethoxy-[2,3′-bipyridin]-5-yl}-4-{[(3S)-1-methylpyrrolidin-3-yl]carbamoyl}piperidin-1-yl)-6-(trifluoromethyl)pyridine-2-carboxamide] | 10 to 100 nM
11 | CCOc1ncccc1-c1ccc(C2(C(=O)N[C@@H]3CCN(C)C3)CCN(c3ccc(C(F)(F)F)nc3C(N)=O)CC2)cn1 [Compound 1-25, 3-(4-{2′-ethoxy-[2,3′-bipyridin]-5-yl}-4-{[(3R)-1-methylpyrrolidin-3-yl]carbamoyl}piperidin-1-yl)-6-(trifluoromethyl)pyridine-2-carboxamide] | 10 to 100 nM
12 | CCOc1ncccc1-c1ccc(C2(NC(=O)[C@@H]3CCN(C)C3)CCN(c3ccc(C(F)(F)F)cc3C#N)CC2)cn1 [Compound 2-7, (3R)—N-{1-[2-cyano-4-(trifluoromethyl)phenyl]-4-{2′-ethoxy-[2,3′-bipyridin]-5-yl}piperidin-4-yl}-1-methylpyrrolidine-3-carboxamidev] | < 10 nM
13 | CCOc1ncccc1-c1ncc(C2(C(=O)NC[C@H](CO)N(C)C)CCN(c3ccc(C(F)(F)F)cc3C#N)CC2)cc1F [Compound 1-334, 1-[2-cyano-4-(trifluoromethyl)phenyl]-N-[(2R)-2-(dimethylamino)-3-hydroxypropyl]-4-{2′-ethoxy-3-fluoro-[2,3′-bipyridin]-5-yl}piperidine-4-carboxamide] | < 10 nM
14 | CCOc1ncccc1-c1ccc(C2(NC(=O)CN(C)C)CCN(c3ccc(C(F)(F)F)cc3C#N)CC2)cn1 [Compound 2-26, N-{1-[2-cyano-4-(trifluoromethyl)phenyl]-4-{2′-ethoxy-[2,3′-bipyridin]-5-yl}piperidin-4-yl}-2-(dimethylamino)acetamide] | < 10 nM
15 | CN1CC[C@](C)(NC(=O)C2(c3ccc(-c4cccn4C)nc3)CCN(c3ccc(C(F)(F)F)cc3C#N)CC2)C1 [Compound 1-253, 1-[2-cyano-4-(trifluoromethyl)phenyl]-N-[(3S)-1,3-dimethylpyrrolidin-3-yl]-4-[6-(1-methyl-1H-pyrrol-2-yl)pyridin-3-yl]piperidine-4-carboxamide] | < 10 nM
16 | COc1ccccc1-c1ncc(C2(NC(=O)CCN(C)C)CCN(c3ccc(C(F)(F)F)cc3C#N)CC2)cc1F [Compound 2-62, N-{1-[2-cyano-4-(trifluoromethyl)phenyl]-4-[5-fluoro-6-(2-methoxyphenyl)pyridin-3-yl]piperidin-4-yl}-3-(dimethylamino)propanamide] | < 10 nM
17 | CCOc1ncccc1-c1ccc(C2(C(=O)N[C@@H]3CCN(C)C3)CCN(c3ccc(C(F)(F)F)cc3C)CC2)cc1 [Compound 1-164, 4-[4-(2-ethoxypyridin-3-yl)phenyl]-1-[2-methyl-4-(trifluoromethyl)phenyl]-N-[(3R)-1-methylpyrrolidin-3-yl]piperidine-4-carboxamide] | 10 to 100 nM
18 | CNCCCNC(=O)C1(c2cnc(-c3ccccc3OC)c(F)c2)CCN(c2ccc(C(F)(F)F)cc2C#N)CC1 [Compound 1-197, 1-[2-cyano-4-(trifluoromethyl)phenyl]-4-[5-fluoro-6-(2-methoxyphenyl)pyridin-3-yl]-N-[3-(methylamino)propyl]piperidine-4-carboxamide] | < 10 nM
19 | CCOc1ncccc1-c1ccc(C2(C(=O)N[C@H]3CCN(C)C3)CCN(c3ncc(C(F)(F)F)cc3C#N)CC2)cn1 [Compound 1-42, 1-[3-cyano-5-(trifluoromethyl)pyridin-2-yl]-4-{2′-ethoxy-[2,3′-bipyridin]-5-yl}-N-[(3S)-1-methylpyrrolidin-3-yl]piperidine-4-carboxamide] | < 10 nM
20 | Cc1sccc1-c1ccc(C2(C(=O)N[C@H]3CCN(C)C3)CCN(c3ccc(C(F)(F)F)cc3C#N)CC2)cn1 [Compound 1-122, 1-[2-cyano-4-(trifluoromethyl)phenyl]-N-[(3S)-1-methylpyrrolidin-3-yl]-4-[6-(2-methylthiophen-3-yl)pyridin-3-yl]piperidine-4-carboxamide] | < 10 nM
21 | CCN(C)CCNC(=O)C1(c2ccc(-c3cccn3C)nc2)CCN(c2ccc(C(F)(F)F)cc2C#N)CC1 [Compound 1-265, 1-[2-cyano-4-(trifluoromethyl)phenyl]-N-{2-[ethyl(methyl)amino]ethyl}-4-[6-(1-methyl-1H-pyrrol-2-yl)pyridin-3-yl]piperidine-4-carboxamide] | < 10 nM
22 | CCOc1ccccc1-c1ccc(C2(C(=O)NC3CN(C)C3)CCN(c3ccc(Cl)cc3C#N)CC2)nn1 [Compound 1-135, 1-(4-chloro-2-cyanophenyl)-4-[6-(2-ethoxyphenyl)pyridazin-3-yl]-N-(1-methylazetidin-3-yl)piperidine-4-carboxamide] | < 10 nM
23 | COc1ncccc1-c1ccc(C2(C(=O)N[C@H]3CCN(C)C3)CCN(c3ccc(C(F)(F)F)cc3C#N)CC2)cn1 [Compound 1-179, 1-[2-cyano-4-(trifluoromethyl)phenyl]-4-{2′-methoxy-[2,3′-bipyridin]-5-yl}-N-[(3S)-1-methylpyrrolidin-3-yl]piperidine-4-carboxamide] | < 10 nM
24 | CCOc1ncccc1-c1ccc(C2(C(=O)N[C@H]3CCN(C)C3)CCN(c3ccc(C(F)(F)F)cc3F)CC2)cn1 [Compound 1-186, 4-{2′-ethoxy-[2,3′-bipyridin]-5-yl}-1-[2-fluoro-4-(trifluoromethyl)phenyl]-N-[(3S)-1-methylpyrrolidin-3-yl]piperidine-4-carboxamide] | < 10 nM
25 | COc1ccccc1-c1ccc(C2(NC(=O)NCCN(C)C)CCN(c3ccc(C(F)(F)F)cc3C#N)CC2)cn1 [Compound 2-58, 1-{1-[2-cyano-4-(trifluoromethyl)phenyl]-4-[6-(2-methoxyphenyl)pyridin-3-yl]piperidin-4-yl}-3-[2-(dimethylamino)ethyl]urea] | < 10 nM
26 | Cn1cccc1-c1ccc(C2(C(=O)N[C@@H]3C[C@@H]3N)CCN(c3ccc(C(F)(F)F)cc3C#N)CC2)cn1 (racemic) [Compound 1-258, rac-N-[(1R,2S)-2-aminocyclopropyl]-1-[2-cyano-4-(trifluoromethyl)phenyl]-4-[6-(1-methyl-1H-pyrrol-2-yl)pyridin-3-yl]piperidine-4-carboxamide] | < 10 nM
